{"source": "ChEMBL document CHEMBL1154404", "about": "(Antimicrob Agents Chemother, 2007)", "key": {"[1]": {"assay": "Plasma concentration in fatty-liver cirrhosis patient plasma treated at 2 mg, po twice a day for 30 days measured after 15 hrs of last dose", "assay_type": "ADME, organism-based", "conditions": "human"}, "[2]": {"assay": "Plasma concentration in fatty-liver cirrhosis patient plasma treated at 2 mg, po twice a day for 30 days measured after 2 days of last dose", "assay_type": "ADME, organism-based", "conditions": "human"}, "[3]": {"assay": "Plasma concentration in fatty-liver cirrhosis patient treated at 2 mg, po twice a day for 30 days measured after 11 days of last dose", "assay_type": "ADME, organism-based", "conditions": "human"}, "[4]": {"organism": "Homo sapiens", "assay": "Drug elimination in healthy human assessed as cytochrome-dependent hepatic metabolism-mediated biliary elimination", "assay_type": "ADME, organism-based", "conditions": "in vivo"}, "[5]": {"system": "Plasma", "assay": "Drug level in patient plasma", "assay_type": "ADME, cell-free", "conditions": "human"}, "[6]": {"system": "Homo sapiens", "assay": "Volume of distribution in fatty-liver cirrhosis patient treated at 2 mg, po twice a day for 30 days measured after 2 days of last dose", "assay_type": "ADME, organism-based", "conditions": "in vivo, 48 h"}, "[7]": {"system": "Homo sapiens", "assay": "Volume of distribution in healthy human at 2 mg, po twice a day for 30 days measured after 2 days of last dose", "assay_type": "ADME, organism-based", "conditions": "in vivo, 48 h"}, "[8]": {"assay": "Half life in healthy human at 2 mg, po twice a day for 30 days measured after 2 days of last dose", "assay_type": "ADME, organism-based", "conditions": "in vivo"}, "[9]": {"assay": "Half life in fatty-liver cirrhosis patient treated at 2 mg, po twice a day for 30 days measured after 2 days of last dose", "assay_type": "ADME, organism-based", "conditions": "human, in vivo"}, "[10]": {"organism": "Homo sapiens", "assay": "Drug elimination in healthy human assessed as cytochrome-dependent hepatic metabolism-mediated kidney elimination", "assay_type": "ADME, organism-based", "conditions": "in vivo"}}, "data": [{"molecule": "C[C@@H](c1ncncc1F)[C@](O)(Cn1cncn1)c1ccc(F)cc1F", "note": "[VORICONAZOLE]", "values": [{"measurement": "concentration at 15 h", "setting": "[1]", "value": 13900, "unit": "ng/mL"}, {"measurement": "concentration at 48 h", "setting": "[2]", "value": 10000, "unit": "ng/mL"}, {"measurement": "concentration at 264 h", "setting": "[3]", "value": 660, "unit": "ng/mL"}, {"measurement": "Activity", "setting": "[4]", "value": 20, "unit": "%"}, {"measurement": "Drug uptake", "setting": "[5]", "value": "> 2.05", "unit": "µg/mL"}, {"measurement": "Vd", "setting": "[6]", "value": 0.13, "unit": "L/kg"}, {"measurement": "Vd", "setting": "[7]", "value": 2.04, "unit": "L/kg"}, {"measurement": "half-life", "setting": "[8]", "value": 4.7, "unit": "h"}, {"measurement": "half-life", "setting": "[9]", "value": 53.1, "unit": "h"}, {"measurement": "Activity", "setting": "[10]", "value": 80, "unit": "%"}]}]}
